The subject of assay [1] is control and progerin mouse cells. The assay can be described thus: Cell growth (proliferation) of mouse fibroblasts. It is filed as cell-based. The following applies: 3 µM. On the procedure: First, control and HGPS fibroblasts were cultured at 37 °C and 5% CO2 in culture media without drug. […] Then, each type of fibroblasts was seeded in triplicate with 150.000 cells/dish at the four different conditions. After 4 days and 9 days, the number of cells harvested in each condition was counted, also using a CASY® Cell Counter (Roche). The cumulative population doubling was determined using equation 5. Cumulative Population Doubling = 3,32 × log((cells harvested)/(cells seeded)) [formula]

In assay [2] the test system is HGPS fibroblasts. The assay can be described thus: Intracellular ATP measurement in HGPS fibroblasts. The settings on record: 0.25-1 µM, 4 or 9 days. It is filed as cell-based, human. On the procedure: This assay relies in the properties of a proprietary thermostable luciferase which generates a stable luminescent signal that is proportional to the amount of ATP in the cells by catalyzing the mono-oxygenation of luciferin in the presence of Mg^2+, ATP and molecular oxygen.
This reagent is obtained by transferring 10 ml of CellTiter-Glo® Buffer into an amber bottle containing CellTiter-Glo® Substrate and then mixing it gently by vortexing. The plate was then mixed for 2 min in an orbital shaker to induce cell lysis and following that, it was incubated at room temperature for 10 min to stabilize the luminescent signal. Finally, luminescence was recorded in a FLUOstar Omega Microplate Reader (Omega BMG Labtech). Considering that the ATP level in mock-treated control fibroblasts is 100%, the ATP levels relative to mock-treated control fibroblasts were calculated for each condition.
Culture media without cells was used as a blank negative control to assure there is no interference with the luciferase reaction.

Assay [3] has as its system HGPS fibroblasts. The assay can be described thus: Autophagy measurement in HGPS fibroblasts. It is filed as cell-based, human. The settings on record: 0.25-1 µM, 4 or 9 days. The method, then: This assay uses monodansylcadaverine (MDC), a fluorescent compound that is incorporated into multilamellar bodies by both an ion trapping mechanism and the interaction with membrane lipids, as a probe for the detection of autophagic vacuoles in cells.
The staining solution was prepared by diluting Cell-Based Monodansylcadaverine 1:1000 in Cell Based Assay Buffer. The assay buffer was prepared by dissolving a Cell-Based Assay Buffer Tablet in 100 ml of distilled water. The plate was then incubated at 37 °C for 10 min and centrifuged for 5 min at 1200 rpm. Next, the supernatant was removed, 100 µl of Cell-Based Assay Buffer was added to each well and the plate was again centrifuged in the same conditions. […] Considering that the autophagy level in mock-treated control fibroblasts is 100%, the level of autophagy relative to mock-treated control fibroblasts for each condition was determined (see Figure 5).
Cell-Based Tamoxifen (100 mM), a known inducer of autophagy, was used as a positive control. This compound was initially added to a control culture diluted 1:50.000 into the culture media. Cell Based Assay Buffer was used as a negative blank control.

For assay [4], the system named is HGPS fibroblasts. The assay can be described thus: 20S proteasome activity measurement in HGPS fibroblasts. Type of assay: cell-based, human. The settings on record: 0.25-1 µM, 4 or 9 days. On the procedure:
This assay uses a specific 20S substrate (SUC-LLVY-AMC) which, upon cleavage by the active enzyme, generates a fluorescent product that can be detected.
Next, the plate was again centrifuged in the same conditions, the supernatant was aspirated, and 100 µl of 20S Proteasome Lysis Buffer was added to each well. Then, the plate was incubated with gentle shaking for 30 min at room temperature to allow cell lysis and it was centrifuged at 1300 rpm for 7 min. Following centrifugation, 90 µl of the supernatant from each well was transferred to a new empty well together with 10 µl of substrate solution. The substrate solution was prepared by adding 25 µl of 20S Proteasome Substrate (SUC-LLVY-AMC) to 1 ml of 20S Proteasome Assay Buffer. […] Considering that the proteasomal activity in mock-treated control fibroblasts is 100%, the proteasomal activity relative to mock-treated control fibroblasts was calculated for each condition.
A Jurkat cell lysate supernatant which contains a high level of 20S activity was used as positive control (20S Proteasome Positive Control) and 20S Proteasome Assay Buffer was used as negative blank control.

The test system of assay [5] is HGPS fibroblasts. The assay can be described thus: Intracellular ROS measurement in HGPS fibroblasts. It is filed as cell-based, human. The settings on record: 0.25-1 µM, 4 or 9 days.
Description: This assay uses 2',7'-dichlorofluorescein diacetate (DCFDA), a cell permeant reagent that after entering the cell is deacetylated by cellular esterases to a non-fluorescent compound that is later oxidized by ROS into 2',7'-dichlorofluorescein (DCF). DCF is highly fluorescent and can be detected by fluorescence spectroscopy.
First, control and HGPS fibroblasts were harvested in the above mentioned conditions and, following trypsinization, the number of cells was counted with a CASY® Cell Counter (Roche). The fibroblasts from each condition were seeded in triplicate in a 96 well plate with 32.000 cells/well in 100 µl of culture media with the appropriate drug concentration, and the plate was incubated at 37 °C for 8 h. After the incubation, the culture media was aspirated, 100 µl of 1 x Buffer were added to each well, and the plate was centrifuged at 1200 rpm for 5 min. […] Following the addition of 1x Buffer, fluorescence was measured immediately in a FLUOstar Omega Microplate Reader (Omega BMG Labtech) using an excitation wavelength of 485 nm and an emission wavelength of 535 nm. Considering that the ROS level in mock-treated control fibroblasts is 100%, the ROS levels relative to mock-treated control fibroblasts were calculated for each condition. […]
Assay [6] relates to mouse fibroblasts from a progerin mouse model. The assay can be described thus: Autophagy measurement in mouse fibroblasts (monodansylcadaverine staining). The following applies: 3 µM.
Protocol: First, control and HGPS fibroblasts were harvested in the above mentioned conditions and, following trypsinization, the number of cells was counted with a CASY® Cell Counter (Roche). Afterwards, fibroblasts from each condition were seeded in triplicate in a 96 well plate with 32.000 cells/well in 100 µl of culture media with the appropriate drug concentration, and the plate was incubated at 37 °C for 8 h. After centrifuging the 96 well plate at 1200 rpm for 5 min, the culture media was aspirated from each well and 100 µl of staining solution was added. The staining solution was prepared by diluting Cell-Based Monodansylcadaverine 1:1000 in Cell Based Assay Buffer. The assay buffer was prepared by dissolving a Cell-Based Assay Buffer Tablet in 100 ml of distilled water. […] Lastly, after removing the supernatant, 100 µl of Cell-Based Assay Buffer was added to each well and the autophagic vacuole staining intensity was immediately detected in a FLUOstar Omega Microplate Reader (Omega BMG Labtech) using an excitation wavelength of 355 nm and an emission wavelength of 520 nm.
In assay [7] the test system is HGPS fibroblasts. The assay can be described thus: Western blot analysis of progerin and lamin A/C levels in HGPS fibroblasts. It is filed as cell-based, human. The following applies: HGPS cells. On the procedure:
Primary dermal fibroblasts from subjects with HGPS were obtained from the Progeria Research Foundation. Two different fibroblasts derived from HGPS patients carrying the LMNA mutation G608G were used: HGADFN003 (person) and HGADFN127 (person). Control dermal fibroblasts were obtained from the Coriell Institute for Medical Research (Camden, NJ). The following cell lines were used: GMO1651C and GMO3349C. All cells were maintained at -80 °C in 90% fetal bovine serum (FBS) and 10% dimethyl sulfoxide (DMSO). The Institutional Review Board of the Technische Universität München (TUM) approved the use of human cells established from skin biopsies from patients with HGPS and unaffected individuals in this study.
Control and HGPS fibroblasts were cultured at 37 °C and 5% CO2 in Dulbecco's Modified Eagle Media (DMEM) (Gibco by life technologies) containing 15% FBS (Gibco by life technologies), 1% L-glutamine (Gibco by life technologies), 1% penicillin/streptomycin (Gibco by life technologies), and 2 ml of gentamycin (Gibco by life technologies). Mock-treated and baricitinib-treated fibroblasts were cultured in parallel. […] Three times a week the cells were re-fed with new culture media.
(§1) A similar quantitative Western Blot analysis was carried out in wild-type mouse fibroblasts compared to fibroblasts obtained from the progerin mouse model (see Figure 17).
Subsequently, the cell suspension was centrifuged for 5 min at 1200 rpm, the supernatant was aspirated, and the cells were washed with 4.5 ml PBS (Sigma). These steps were performed thrice in order to assure that all culture media is removed. Then, the cells were transferred to Eppendorf tubes with 1 ml PBS (Sigma) and the tubes were centrifuged for 5 min at 1200 rpm. […]
(§2) The total protein concentration of each gel electrophoresis loading sample was determined by using a series of dilutions of known concentrations of bovine serum albumin (BSA) to obtain a standard curve. […] The total protein concentration of each gel electrophoresis loading sample was calculated based on this standard curve. […]
(In western blotting, separated proteins are transferred to a membrane and probed.)

Assay [8] deals with mouse fibroblasts from a progerin mouse model. The assay can be described thus: Western blot analysis of progerin levels in mouse fibroblasts from progerin mouse model. Type of assay: cell-based. The settings on record: mouse progerin fibroblasts (LMNA G609G/G609G), 3 µM. The method, then: as §1
Subsequently, the cell suspension was centrifuged for 5 min at 1200 rpm, the supernatant was aspirated, and the cells were washed with 4.5 ml PBS (Sigma). These steps were performed thrice in order to assure that all culture media is removed. Then, the cells were transferred to Eppendorf tubes with 1 ml PBS (Sigma) and the tubes were centrifuged for 5 min at 1200 rpm. After fully aspirating PBS, the cell pellets were obtained. Following the generation of cell pellets, the next action was the preparation of the gel electrophoresis loading samples. The first step was the addition of 100 µl per 10^7 cells of Laemmli Buffer-inhibitor mix to each Eppendorf tube to lyse the fibroblasts and denature the proteins of the lysate. […]
as §2

We go through 1 compound from EP3511005A1, “COMPOUNDS FOR USE IN TREATING HUTCHINSON-GILFORD PROGERIA SYNDROME” (Technische Universität München, priority 2018, dated 2019).

Structures are written as SMILES. “And” between values parts separate entries of the source, which are not always exact repeats. Equal entries are not always repeated.

`CCS(=O)(=O)N1CC(CC#N)(n2cc(-c3ncnc4[nH]ccc34)cn2)C1` [baricitinib]: the cell growth entry in assay [1] was “ameliorate cell growth”. In the assay on HGPS fibroblasts [2], the ATP levels entry was “increase”. Further, the autophagy activity entry in the assay with HGPS fibroblasts [3] is “increase”. Moreover, in the assay on HGPS fibroblasts [4], the proteasome activity result was “increase”. The ROS levels entry with HGPS fibroblasts [5] is recorded as “decrease”. Besides, the levels of autophagy result in assay [6] (both control and progerin mouse fibroblasts) is given as “increases”. Besides, the “levels of autophagy increased” value in assay [6] (progerin mouse fibroblast relative to mock-treated control cells) amounted to 39.9%. In addition, the “reduction of levels of progerin” value in the assay with HGPS fibroblasts [7] (4 days treatment with 1 µM, anti-progerin and anti-lamin A/C antibodies) amounted to 15%. The compound further gave a progerin levels decreased in the assay on HGPS fibroblasts [7] (9 days treatment with 1 µM) of 33%. Besides, the “lamin A and lamin C levels” value in the assay with HGPS fibroblasts [7] (long-term treatment) is “remained constant”. The “levels of progerin decrease” value was 18% in assay [8] (day 4); 35% and 35.6% in assay [8] (day 9).
